Test results taken from article PMC7730263, “Function and Regulation of the Pyruvate Transporter CstA in Escherichia coli” (International Journal of Molecular Sciences, 2020).

B1: CstA (CstA-6His) (Escherichia coli K-12) (protein)
chain: MNKSGKYLVWTVLSVMGAFALGYIALNRGEQINALWIVVASVCIYLIAYRFYGLYIAKNVLAVDPTRMTPAVRHNDGLDYVPTDKKVLFGHHFAAIAGAGPLVGPVLAAQMGYLPGMIWLLAGVVLAGAVQDFMVLFVSTRRDGRSLGELVKEEMGPTAGVIALVACFMIMVIILAVLAMIVVKALTHSPWGTYTVAFTIPLALFMGIYLRYLRPGRIGEVSVIGLVFLIFAIISGGWVAESPTWAPYFDFTGVQLTWMLVGYGFVAAVLPVWLLLAPRDYLSTFLKIGTIVGLAVGILIMRPTLTMPALTKFVDGTGPVWTGNLFPFLFITIACGAVSGFHALISSGTTPKMLANEGQACFIGYGGMLMESFVAIMALVSACIIDPGVYFAMNSPMAVLAPAGTADVVASAAQVVSSWGFSITPDTLNQIASEVGEQSIISRAGGAPTLAVGMAYILHGALGGMMDVAFWYHFAILFEALFILTAVDAGTRAARFMLQDLLGVVSPGLKRTDSLPANLLATALCVLAWGYFLHQGVVDPLGGINTLWPLFGIANQMLAGMALMLCAVVLFKMKRQRYAWVALVPTAWLLICTLTAGWQKAFSPDAKVGFLAIANKFQAMIDSGNIPSQYTESQLAQLVFNNRLDAGLTIFFMVVVVVLALFSIKTALAALKDPKPTAKETPYEPMPENVEEIVAQAKGAH
notes: full-length, 701 residues, 6His tag, from plasmid pBAD24-cstA6H (uninduced) in intact E. coli MG1655 ΔbtsT ΔcstA ΔyhjX cells; inner membrane protein, TC# 2.A.114

Legend:
[1] = target: T1, CstA (CstA-6His) (Escherichia coli, UniProt P15078); test: competition with […]pyruvate uptake into intact cells, rapid filtration; assay type: cell-based; settings: 1 mM competitor against 10 µM [14C]pyruvate; Tris/MES pH 7.5, 5 mM MgCl2, 15 °C; competitor for the pyruvate site
T1 construct: full-length, 701 residues, 6His tag, from plasmid pBAD24-cstA6H (uninduced) in intact E. coli MG1655 ΔbtsT ΔcstA ΔyhjX cells; inner membrane protein, TC# 2.A.114

[2] = substrate: CC(=O)C(=O)O; test: cells, lysate or membranes; assay type: cell-based, Escherichia coli; settings: labelled compound, intact cells of 3Δ mutant with p-cstA, Tris/MES pH 7.5, 5 mM MgCl2, 15 °C, background of 3Δ mutant subtracted, proton-gradient driven

Molecule | competition with [14C]pyruvate uptake into intact cells, rapid filtration [1] | Km [2] [µM]
O=C(O)C(=O)CBr [Br-pyruvate] | Only pyruvate itself or Br-pyruvate (a synthetic analogue) were found to act as competitors. | 
B1 |  | 242
